Assay results published in patent US10988478B1, “Pyrazolo[1,5a]pyrimidine derivatives as IRAK4 modulators” (Genentech, Inc., priority 2015, dated 2021).

biological target: human IRAK4 (Homo sapiens (Human), UniProt Q9NWZ3); experiment: IRAK4 kinase inhibition, Transcreener fluorescence polarization ADP assay; assay type: biochemical; settings: recombinant full-length His6-IRAK4; 125 uM ATP; 90 min; Ki computed using ATP Km 642 uM
Experimental: Compounds were assayed for inhibition of human IRAK4 and IRAK1 catalytic activity using recombinant enzyme produced from insect cells. Full-length IRAK4 protein, carrying an N-terminal His6-Tag, was obtained from Life Technologies (Carlsbad, Calif., USA). The IRAK1 construct was produced internally and was comprised of IRAK1 residues Arg194 to Ser712, preceded by an NH2-terminal His6 tag and the coding sequence for glutathione-S-transferase.

Sequence of human IRAK4 (Q9NWZ3 whole entry, the tested form may be a part): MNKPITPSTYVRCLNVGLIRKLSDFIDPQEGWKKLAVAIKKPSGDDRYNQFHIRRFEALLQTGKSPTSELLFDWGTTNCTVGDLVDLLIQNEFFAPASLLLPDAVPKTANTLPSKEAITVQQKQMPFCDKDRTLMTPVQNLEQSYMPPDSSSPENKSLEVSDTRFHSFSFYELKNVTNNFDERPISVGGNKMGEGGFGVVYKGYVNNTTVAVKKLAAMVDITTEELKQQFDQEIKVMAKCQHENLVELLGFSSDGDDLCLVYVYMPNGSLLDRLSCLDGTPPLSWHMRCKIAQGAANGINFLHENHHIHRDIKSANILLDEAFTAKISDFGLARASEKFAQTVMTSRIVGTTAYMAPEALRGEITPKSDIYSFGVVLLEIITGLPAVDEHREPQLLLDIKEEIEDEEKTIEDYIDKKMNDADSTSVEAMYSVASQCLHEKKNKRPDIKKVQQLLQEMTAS

| Structure (SMILES) | Ki |
| --- | --- |
| Cc1cnc2c(C(=O)Nc3cc4c(cc3N3CCN(CC(F)F)CC3)OC(C)(CO)C4)cnn2c1 (centres unmarked) [Example 325, N-(6-(4-(2,2-Difluoroethyl)piperazin-1-yl)-2-(hydroxymethyl)-2-methyl-2,3-dihydrobenzofuran-5-yl)-6-methylpyrazolo[1,5-a]pyrimidine-3-carboxamide] | 6 nM |
| Cc1cnc2c(C(=O)Nc3cc4c(cc3N3CCC(F)(CO)CC3)OC(C)(CO)C4)cnn2c1 (stereo not drawn) [Example 328, N-(6-(4-Fluoro-4-(hydroxymethyl)-piperidin-1-yl)-2-(hydroxymethyl)-2-methyl-2,3-dihydrobenzofuran-5-yl)-6-methylpyrazolo[1,5-α]pyrimidine-3-carboxamide] | 2.7 nM |
| C[C@@]1(O)CCCN(c2cc3c(cc2NC(=O)c2cnn4cccnc24)C[C@](C)(CO)O3)CC1 [Example 329, N-((R)-6-((R)-4-hydroxy-4-methylazepan-1-yl)-2-(hydroxymethyl)-2-methyl-2,3-dihydrobenzofuran-5-yl)pyrazolo[1,5-a]pyrimidine-3-carboxamide] | 6 nM |
| C[C@]1(O)CCCN(c2cc3c(cc2NC(=O)c2cnn4cccnc24)C[C@](C)(CO)O3)CC1 [Example 330, N-((R)-6-((S)-4-hydroxy-4-methylazepan-1-yl)-2-(hydroxymethyl)-2-methyl-2,3-dihydrobenzofuran-5-yl)pyrazolo[1,5-a]pyrimidine-3-carboxamide] | 6 nM |
| C[C@]1(O)CCCN(c2cc3c(cc2NC(=O)c2cnn4cccnc24)C[C@@](C)(CO)O3)CC1 [Example 332, N-((S)-6-((S)-4-hydroxy-4-methylazepan-1-yl)-2-(hydroxymethyl)-2-methyl-2,3-dihydrobenzofuran-5-yl)pyrazolo[1,5-a]pyrimidine-3-carboxamide] | 6 nM |
| C[C@]1(CO)Cc2cc(NC(=O)c3cnn4cccnc34)c(N3CCC(C#N)CC3)cc2O1 [Example 335, (R)-N-(6-(4-cyanopiperidin-1-yl)-2-(hydroxymethyl)-2-methyl-2,3-dihydrobenzofuran-5-yl)pyrazolo[1,5-a]pyrimidine-3-carboxamide] | 2 nM |
| C[C@@]1(CO)Cc2cc(NC(=O)c3cnn4cccnc34)c(N3CCC(C#N)CC3)cc2O1 [Example 336, (S)-N-(6-(4-cyanopiperidin-1-yl)-2-(hydroxymethyl)-2-methyl-2,3-dihydrobenzofuran-5-yl)pyrazolo[1,5-a]pyrimidine-3-carboxamide] | 3 nM |
| C[C@]1(CO)Cc2cc(NC(=O)c3cnn4cccnc34)c(N3CCC(C4(O)CC4)CC3)cc2O1 [Example 341, N-[(2R)-6-[4-(1-hydroxycyclopropyl)-1-piperidyl]-2-(hydroxymethyl)-2-methyl-3H-benzofuran-5-yl]pyrazolo[1,5-a]pyrimidine-3-carboxamide] | 4 nM |
| C[C@@]1(CO)Cc2cc(NC(=O)c3cnn4cccnc34)c(N3CCC(C4(O)CC4)CC3)cc2O1 [Example 342, N-[(2S)-6-[4-(1-hydroxycyclopropyl)-1-piperidyl]-2-(hydroxymethyl)-2-methyl-3H-benzofuran-5-yl]pyrazolo[1,5-a]pyrimidine-3-carboxamide] | 3.9 nM |
| CCC(=O)C1CCN(c2cc3c(cc2NC(=O)c2cnn4cccnc24)CC(C)(CO)O3)CC1 (centres unmarked) [Example 343, N-[2-(Hydroxymethyl)-2-methyl-6-(4-propanoyl-1-piperidyl)-3H-benzofuran-5-yl]pyrazolo[1,5-a]pyrimidine-3-carboxamide] | 5 nM |
| C[C@]1(CO)Cc2cc(NC(=O)c3cnn4cccnc34)c(N3C[C@@H]4[C@H](C3)[C@@H]4C(N)=O)cc2O1 [Example 348, N-((R)-6-((1R,5S,6S)-6-carbamoyl-3-azabicyclo[3.1.0]hexan-3-yl)-2-(hydroxymethyl)-2-methyl-2,3-dihydrobenzofuran-5-yl)pyrazolo[1,5-a]pyrimidine-3-carboxamide] | 890 nM |
